# According to paper PMC12345137 (mBio, 2025):
# “And” between values parts separate entries of the source, which are not always exact repeats. Equal values may be shown once. Read-outs that look alike come from different tables or passages of the source. Positions of bridges follow the written chain, without caps; N, C: chain ends. Residues, ends and D or L forms follow the SMILES beside them.
# Columns and labels:
# SA AgrC-II [1] = target: T1, SA AgrC-II (Staphylococcus aureus, UniProt O33587); details: ± SEM, determined previously, ref (1), cited from earlier work
# T1 sequence (O33587 entry or part of it): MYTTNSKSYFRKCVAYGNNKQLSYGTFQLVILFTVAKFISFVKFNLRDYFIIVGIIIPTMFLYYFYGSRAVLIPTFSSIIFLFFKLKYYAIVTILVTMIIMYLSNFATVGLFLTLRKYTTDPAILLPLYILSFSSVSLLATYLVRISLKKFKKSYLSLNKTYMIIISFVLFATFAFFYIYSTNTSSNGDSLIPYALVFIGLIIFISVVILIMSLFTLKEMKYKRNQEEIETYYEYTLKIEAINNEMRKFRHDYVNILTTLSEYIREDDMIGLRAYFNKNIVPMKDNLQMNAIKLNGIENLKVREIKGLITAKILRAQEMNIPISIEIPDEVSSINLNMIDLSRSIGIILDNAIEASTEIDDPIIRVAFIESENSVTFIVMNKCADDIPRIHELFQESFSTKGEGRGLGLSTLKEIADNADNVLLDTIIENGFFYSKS
# S. aureus (SA) agr-I [2] = details: fluorescence; ref (5); cited from earlier work
# [3] = system: S. epidermidis (SE) agr-I; details: fluorescence, cited from earlier work
# S. aureus (SA) agr-III [4] = details: b-lactamase, cited from earlier work
# S. aureus (SA) agr-I [5] = system: S. aureus (SA) agr-I; set-up: method as in ref (5) (a number printed in a supplementary file, which may have a reference list of its own: not looked up in the article's list); details: hemolysis; ref (5); cited from earlier work
# S. aureus (SA) agr-II [6] = system: S. aureus (SA) agr-II; set-up: method as in ref (5) (a number printed in a supplementary file, which may have a reference list of its own: not looked up in the article's list); details: hemolysis; ref (5); cited from earlier work
# SA AgrC-III [7] = target: T2, SA AgrC-III (Staphylococcus aureus, UniProt O33590); details: ± SEM, determined previously, ref (1), cited from earlier work
# T2 sequence (O33590 entry or part of it): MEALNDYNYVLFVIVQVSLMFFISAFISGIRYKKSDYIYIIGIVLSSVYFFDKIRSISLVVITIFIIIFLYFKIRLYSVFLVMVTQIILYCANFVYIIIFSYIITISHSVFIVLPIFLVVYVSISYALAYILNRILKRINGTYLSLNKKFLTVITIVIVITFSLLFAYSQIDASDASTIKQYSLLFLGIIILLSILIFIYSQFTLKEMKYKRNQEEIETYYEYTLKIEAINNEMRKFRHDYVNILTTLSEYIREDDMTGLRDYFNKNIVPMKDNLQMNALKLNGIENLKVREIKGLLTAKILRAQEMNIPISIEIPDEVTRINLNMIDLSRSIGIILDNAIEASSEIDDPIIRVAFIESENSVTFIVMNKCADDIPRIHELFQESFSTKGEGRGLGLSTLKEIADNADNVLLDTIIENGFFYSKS
# S. aureus (SA) agr-I [8] = details: b-lactamase, cited from earlier work
# S. aureus (SA) agr-IV [9] = details: b-lactamase; ref (4); cited from earlier work
# SA AgrC-IV [10] = target: T3, SA AgrC-IV (Staphylococcus aureus, UniProt Q309Z2); details: 100 nM cognate AIP; ± SEM; -b = no inhibition recorded at the highest AIP concentration tested; determined previously; ref (1); read-out: IC50, SA AgrC-IV, b-lactamase assay; cited from earlier work
# T3 sequence (Q309Z2 entry or part of it): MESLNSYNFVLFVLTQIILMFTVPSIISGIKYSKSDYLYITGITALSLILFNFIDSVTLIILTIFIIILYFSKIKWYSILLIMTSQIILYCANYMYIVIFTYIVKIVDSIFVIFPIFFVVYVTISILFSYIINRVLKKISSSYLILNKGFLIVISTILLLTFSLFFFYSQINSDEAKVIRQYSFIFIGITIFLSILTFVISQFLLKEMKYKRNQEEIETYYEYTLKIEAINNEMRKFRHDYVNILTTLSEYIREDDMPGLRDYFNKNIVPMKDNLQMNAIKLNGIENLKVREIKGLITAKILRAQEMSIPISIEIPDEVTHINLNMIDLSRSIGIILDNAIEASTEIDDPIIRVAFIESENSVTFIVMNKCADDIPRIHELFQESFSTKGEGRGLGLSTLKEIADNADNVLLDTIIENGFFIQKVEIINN
# S. aureus (SA) agr-IV [11] = system: S. aureus (SA) agr-IV; set-up: method as in ref (5) (a number printed in a supplementary file, which may have a reference list of its own: not looked up in the article's list); details: hemolysis; ref (5); cited from earlier work
# [12] = system: S. epidermidis (SE) agr-I; set-up: method as in ref (9) (a number printed in a supplementary file, which may have a reference list of its own: not looked up in the article's list); details: HPLC d-toxin, ref (9); cited from earlier work
# S. aureus (SA) agr-II [13] = details: b-lactamase, cited from earlier work
# SA AgrC-I = SA AgrC-I (Staphylococcus aureus, UniProt O07911); details: 100 nM cognate AIP; ± SEM; -b = no inhibition recorded at the highest AIP concentration tested; determined previously; ref (1); read-out: IC50, SA AgrC-I, b-lactamase assay; cited from earlier work
# Chain of SA AgrC-I (O07911 entry or part of it): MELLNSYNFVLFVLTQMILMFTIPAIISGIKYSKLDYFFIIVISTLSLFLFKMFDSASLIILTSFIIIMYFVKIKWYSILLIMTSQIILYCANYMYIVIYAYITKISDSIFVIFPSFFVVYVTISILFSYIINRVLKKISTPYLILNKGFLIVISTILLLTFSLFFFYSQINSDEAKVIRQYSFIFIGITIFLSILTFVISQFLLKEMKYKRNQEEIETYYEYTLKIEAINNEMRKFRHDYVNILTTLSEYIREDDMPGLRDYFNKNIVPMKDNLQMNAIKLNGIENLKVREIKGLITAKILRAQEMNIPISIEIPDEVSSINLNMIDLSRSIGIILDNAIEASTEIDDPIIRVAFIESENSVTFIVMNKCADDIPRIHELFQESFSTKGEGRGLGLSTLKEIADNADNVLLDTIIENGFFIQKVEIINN
# S. aureus (SA) agr-III [14] = details: fluorescence, cited from earlier work
# S. aureus (SA) agr-II [15] = details: fluorescence; ref (10); cited from earlier work
# S. aureus (SA) agr-III [16] = system: S. aureus (SA) agr-III; set-up: method as in ref (9) (a number printed in a supplementary file, which may have a reference list of its own: not looked up in the article's list); details: HPLC d-toxin; ref (9); cited from earlier work
# S. lugdunensis agr-I = S. lugdunensis agr-I (Staphylococcus lugdunensis, UniProt Q8VSW5); experiment: cell-based; details: fluorescent reporter strain; peptides tested at 1000, 50, 2.5, 0.125 nM or in dose-response
# Chain of S. lugdunensis agr-I (Q8VSW5 entry or part of it): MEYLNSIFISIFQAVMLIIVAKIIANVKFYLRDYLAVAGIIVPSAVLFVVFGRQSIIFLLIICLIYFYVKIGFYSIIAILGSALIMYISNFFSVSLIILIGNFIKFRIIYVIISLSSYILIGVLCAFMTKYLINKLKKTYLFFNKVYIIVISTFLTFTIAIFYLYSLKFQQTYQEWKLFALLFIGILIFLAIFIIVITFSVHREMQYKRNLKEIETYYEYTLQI
# Procedure, shortened: (§1)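 Fluorescence of the agr-driven P3 reporter, read after 22–24 h of growth with peptide at 37°C, was corrected for medium background and divided by OD600. Activity is given relative to wells without peptide, and IC50 values were fitted by non-linear regression with variable slope.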
# S. aureus agr-II = S. aureus agr-II (Staphylococcus aureus, UniProt O33587); experiment: cell-based
# Chain of S. aureus agr-II (O33587 entry or part of it): as the sequence (O33587 entry or part of it) above
# Procedure, shortened: as §1
# S. aureus (SA) agr-I [17] = system: S. aureus (SA) agr-I; set-up: method as in ref (9) (a number printed in a supplementary file, which may have a reference list of its own: not looked up in the article's list); details: HPLC d-toxin; ref (9); cited from earlier work
# [18] = system: S. epidermidis (SE) agr-III; details: fluorescence; from supernatant; ref (18); cited from earlier work
# SA AgrC-IV [19] = target: T3, SA AgrC-IV; experiment: β-Lactamase assay, reporter strain RN10829 (P2-agrA:P3-blaZ) with pagrC-IV; type: cell-based; details: 100 nM cognate AIP; ± SEM; -b = no inhibition recorded at the highest AIP concentration tested; -a = only partial inhibition observed; this study (curves in Fig. S22)
# Procedure, shortened: (§2)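 S. aureus RN10829 P2-agrA:P3-blaZ reporter carrying a plasmid for the matching wild-type AgrC, grown in TSB to OD600 0.35–0.40. Cells met peptides (10 μM–10 pM) plus cognate AIP at 100 nM for 1 h at 37°C, then nitrocefin (33.3 μg/mL) turnover was read at OD486 for 10 min; IC50 from linear rates.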
# [20] = system: S. epidermidis (SE) agr-II; details: fluorescence; from supernatant; ref (18); cited from earlier work
# S. aureus (SA) agr-II [21] = system: S. aureus (SA) agr-II; set-up: method as in ref (9) (a number printed in a supplementary file, which may have a reference list of its own: not looked up in the article's list); details: HPLC d-toxin; ref (9); cited from earlier work
# SA AgrC-II [22] = target: T1, SA AgrC-II; experiment: β-Lactamase assay, reporter strain RN10829 (P2-agrA:P3-blaZ) with pagrC-II; type: cell-based; details: 100 nM cognate AIP; ± SEM; -b = no inhibition recorded at the highest AIP concentration tested; -a = only partial inhibition observed; this study (curves in Fig. S20)
# Procedure, shortened: as §2
# S. aureus (SA) agr-IV [23] = details: fluorescence, cited from earlier work
# S. epidermidis agr-III = S. epidermidis agr-III (Staphylococcus epidermidis, UniProt Q8VSX2); experiment: cell-based; type: cell-based
# Chain of S. epidermidis agr-III (Q8VSX2 entry or part of it): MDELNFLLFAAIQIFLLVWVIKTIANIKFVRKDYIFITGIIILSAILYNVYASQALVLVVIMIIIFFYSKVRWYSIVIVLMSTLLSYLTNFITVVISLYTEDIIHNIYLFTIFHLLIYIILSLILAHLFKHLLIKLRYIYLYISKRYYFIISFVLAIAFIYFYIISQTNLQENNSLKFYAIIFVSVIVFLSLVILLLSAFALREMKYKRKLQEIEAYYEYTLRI
# Procedure, shortened: as §1
# S. aureus agr-IV = S. aureus agr-IV (Staphylococcus aureus, UniProt Q309Z2); experiment: cell-based; type: cell-based; details: fluorescent reporter strain; peptides tested at 1000, 50, 2.5, 0.125 nM or in dose-response
# Chain of S. aureus agr-IV (Q309Z2 entry or part of it): as the sequence (Q309Z2 entry or part of it) above
# Procedure, shortened: as §1
# SA AgrC-III [24] = target: T2, SA AgrC-III; experiment: β-Lactamase assay, reporter strain RN10829 (P2-agrA:P3-blaZ) with pagrC-III; type: cell-based
# Procedure, shortened: as §2
# S. aureus (SA) agr-IV [25] = system: S. aureus (SA) agr-IV; set-up: method as in ref (9) (a number printed in a supplementary file, which may have a reference list of its own: not looked up in the article's list); details: HPLC d-toxin, ref (9); cited from earlier work
# S. aureus (SA) agr-III [26] = system: S. aureus (SA) agr-III; set-up: method as in ref (5) (a number printed in a supplementary file, which may have a reference list of its own: not looked up in the article's list); details: hemolysis; ref (5); cited from earlier work
molecule,measurement,setting,value
S. aureus AIP-III [compound 3],IC50,"SA AgrC-II [1]; 100 nM cognate AIP, -b = no inhibition recorded at the highest AIP concentration tested, read-out: IC50, SA AgrC-II, b-lactamase assay",150 ± 63 nM
same,IC50,S. aureus (SA) agr-I [2],5.05 nM
same,"inhibition at 1000 nM, SE agr-I","[3]; at 1000 nM, ref (11)",no inhibition
same,EC50,S. aureus (SA) agr-III [4]; ref (4),26 nM
same,EC50,S. aureus (SA) agr-III [4]; ref (7),406 nM
same,IC50,S. aureus (SA) agr-I [5],8.07 nM
same,IC50,S. aureus (SA) agr-II [6],0.46 nM
same,EC50,"SA AgrC-III [7]; read-out: EC50, SA AgrC-III, b-lactamase assay",11 ± 1 nM
same,IC50,S. aureus (SA) agr-I [8]; ref (4),70 nM
same,IC50,S. aureus (SA) agr-I [8]; ref (8),8 ± 1.1 nM
same,IC50,S. aureus (SA) agr-IV [9],150 nM
same,IC50,SA AgrC-IV [10],> 1000 nM
same,IC50,S. aureus (SA) agr-IV [11],23.8 nM
same,"inhibition at 1000 nM, SE agr-I",[12],no inhibition
same,IC50,S. aureus (SA) agr-II [13]; ref (4),6 nM
same,IC50,SA AgrC-I,120 ± 15 nM
"CC(C)[C@H](NC(=O)[C@H](CO)NC(=O)[C@@H](N)CC(=O)O)C(=O)N[C@H]1CSC(=O)[C@H](Cc2ccccc2)NC(=O)[C@H](Cc2ccc(O)cc2)NC(=O)[C@H](CO)NC(=O)[C@H](C)NC1=O [compound 5, S. epidermidis AIP-I] (H-DSVCASYF; thioester 4-C)","effect from supernatant (% inhibition, activation or no effect), SE agr-I","[3]; from supernatant, ref (18)",activation
same,EC50,[3]; ref (11),196 nM
same,IC50,S. aureus (SA) agr-III [14]; ref (10),13 nM
same,IC50,S. aureus (SA) agr-II [15],> 1000 nM
same,IC50,S. aureus (SA) agr-III [16],~10 nM
same,"QS interaction in words (inhibition / activation), S. lugdunensis agr-I",S. lugdunensis agr-I,no effect at 1000 nM
same,IC50,S. aureus agr-II,858 nM
same,IC50,S. aureus (SA) agr-I [17],~250 nM
same,"effect from supernatant (% inhibition, activation or no effect), SE agr-III",[18],~ 90%
same,"IC50, SA AgrC-IV, b-lactamase assay",SA AgrC-IV [19],-b
same,"effect from supernatant (% inhibition, activation or no effect), SE agr-II",[20],~ 90%
same,IC50,S. aureus (SA) agr-II [21],30 to 40 nM
same,"IC50, SA AgrC-II, b-lactamase assay",SA AgrC-II [22],-b
same,IC50,S. aureus (SA) agr-IV [23]; ref (10),> 1000 nM
same,IC50,S. epidermidis agr-III,8.6 ± 0.7 nM
same,"QS interaction in words (inhibition / activation), S. aureus agr-IV",S. aureus agr-IV,no effect at 1000 nM
same,IC50,SA AgrC-III [24],> 1000 nM
same,"inhibition at 1000 nM, SA agr-IV",S. aureus (SA) agr-IV [25],no inhibition
S. aureus AIP-II [compound 2],EC50,"SA AgrC-II [1]; read-out: EC50, SA AgrC-II, b-lactamase assay",3.7 ± 0.5 nM
same,IC50,S. aureus (SA) agr-I [2],1.62 nM
same,IC50,[3]; ref (11),62.9 nM
same,IC50,S. aureus (SA) agr-III [26],3.59 nM
same,IC50,S. aureus (SA) agr-III [4]; ref (2),3.2 ± 1.3 nM
same,IC50,S. aureus (SA) agr-III [4]; ref (4),1 nM
same,IC50,S. aureus (SA) agr-I [5],0.89 nM
same,IC50,S. aureus (SA) agr-III [14]; ref (5),0.53 nM
same,IC50,"SA AgrC-III [7]; 100 nM cognate AIP, -b = no inhibition recorded at the highest AIP concentration tested, read-out: IC50, SA AgrC-III, b-lactamase assay",40 ± 15 nM
same,IC50,S. aureus (SA) agr-I [8]; ref (2),2.9 ± 1.2 nM
same,IC50,S. aureus (SA) agr-I [8]; ref (3),90 nM and 78 nM
same,IC50,S. aureus (SA) agr-I [8]; ref (4),40 nM
same,IC50,S. aureus (SA) agr-I [8]; ref (8),12 ± 2.9 nM
same,IC50,S. aureus (SA) agr-IV [9],86 nM
same,IC50,SA AgrC-IV [10],230 ± 19 nM
same,IC50,S. aureus (SA) agr-IV [11],1.19 nM
same,"inhibition at 1000 nM, SE agr-I",[12],no inhibition
same,IC50,S. aureus (SA) agr-IV [23]; ref (5),0.4 nM
same,EC50,S. aureus (SA) agr-II [13]; ref (3),34 nM and 28 nM
same,EC50,S. aureus (SA) agr-II [13]; ref (4),30 nM
same,EC50,S. aureus (SA) agr-II [13]; ref (7),40.9 nM
same,IC50,SA AgrC-I,110 ± 12 nM
